Assay [1] deals with human platelet aggregation. In words: Inhibition of human platelet aggregation (anti-platelet aggregation activity). Format: cell-based. Particulars: Homo sapiens, Platelet, Inducer: ADP 2.5 μM; human PRP; concentration required to inhibit aggregation by 50%; read-out: ED50 (the source's name). How it is done: Inhibitory activity of the nitro compounds of this invention against human platelet aggregation was measured according to the method described below.
Blood was collected from human volunteers. The blood was prevented from coagulation with 1 volume of 3.8% sodium citrate to 9 volumes of blood. Platelet rich plasma (PRP) was prepared by centrifugation of the blood at 1300 rpm for 10 min. at 10° C. The PRP was diluted with platelet poor plasma obtained by further centrifugation of the blood at 3000 rpm for 10 min. The platelet counts in the PRP used for aggregation studies were about 4.0×10^5 platelets/mm^3. Aggregation studies were performed turbidimetrically using NKK HEMATRACER 1. To 225 μl of PRP 25 μl of the test compounds was added and preincubated for 2 min. After preincubation 5 μl of aggregating agents were added to the mixture. Collagen and ADP were used as aggregating agents at the concentrations of 0.5 μg/ml and 2.5 μM, respectively. Activities of the test compounds were expressed as ED50 values i.e. concentrations required to inhibit the platelet aggregation responses by 50%.

For assay [2], the system named is Mean Arterial Blood Pressure in Anesthetized Rats. Put plainly: Effect on mean arterial blood pressure in anesthetized rats (intravenous). Format: in vivo, rat (male Sprague-Dawley). Particulars: for Hypotensive effect T 1/2: i.v., time to recover to half of maximal decrease. How it is done:
Male Sprague-Dawley rats, aged 9-12 weeks, were anesthetized with urethane (1.4 g/kg i.p.). A polyethylene cannula filled with heparin solution was inserted into the femoral artery of the rats to measure mean blood pressure. Mean blood pressure was measured with a pressure transducer and recorded on a polygraph. The test compound dissolved in ethanol, polyethylene glycol and distilled water (1:1:2), were administered intraveneously in a volume of 0.25 ml/kg. Intravenous hypothypotensive effects of each compound were expressed as the maximal decrease (R max) and the half time (T 1/2). Briefly, R max was expressed as maximal % change compared to mean blood pressure prior to the administration of compound. T 1/2 was expressed as a time during which the hypotensive effect recovered to half of the maximal decrease.

The test system of assay [3] is Mean Arterial Blood Pressure in Conscious Rats. Put plainly: Effect on mean arterial blood pressure in conscious rats (oral). The class given is in vivo, rat (male Sprague-Dawley). Particulars: for Hypotensive effect Dur.: time to recover to 5% of maximal decrease; for Hypotensive effect T 1/2: time to recover to half of maximal decrease; for inhibition in vivo at 3.2 mg/kg / inhibition in vivo at 10 mg/kg / inhibition in vivo at 32 mg/kg: Rattus norvegicus, po, maximal % decrease of mean blood pressure, read-out: Hypotensive effect R max. Here is the method: Male Sprague-Dawley rats, aged 9-11 weeks, were anesthetized with ether and a polyethylene cannula filled with heparin solution was inserted into the femoral artery of the rats to measure mean blood pressure. Mean blood pressure was measured with a pressure transducer and recorded on a polygraph. Two hours after operation, the drug suspended in 0.5% methyl cellulose was administered orally in a volume of 5 ml/kg. Oral hypotensive effects of each compound were expressed as the maximal decrease (R max), the half time (T 1/2) and the duration (Dur.). Briefly, R max was expressed as maximal % change compared to mean blood pressure prior to the administration of compound. T 1/2 was expressed as a time during which the hypotensive effect recovered to half of the maximal decrease. Duration was expressed as a time during which the hypotensive effect recovered to 5% of the maximal decrease.

Assay [4] has as its system thoracic aorta from male Sprague-Dawley rats. In words: Vasodilating activity in vitro (relaxation of norepinephrine-contracted aortic strips). Details: species or system rat (male Sprague-Dawley). Particulars: rat aorta helical strips contracted by 3.2×10^-8 g/ml norepinephrine, 37° C. Here is the method: The thoracic aorta from male Sprague-Dawley rats, aged 9-11 weeks, were removed and cut into helical strips after removal of excess fat and connective tissues. The strips were mounted vertically in organ baths containing 25 ml Tyrode solution and isometric tension was measured. The tissue bath solution was maintained at 37° C. and bubbled with a 95% O2 and 5% CO2 gas mixture. After the resting tension was adjusted to 0.5 g, the strips were contracted by 3.2×10^-8 g/ml of norepinephrine (NE). The test compound dissolved in ethanol, polyethylene glycol and distilled water (1:1:2) were added to the organ bath cumulatively.
Then, relaxative activity of test compound was expressed as IC50 value i.e. concentration required to inhibit the contraction response by 50%.

The mark [5] stands for this setting: Rattus norvegicus, iv, 0.32 mg/kg, maximal % decrease of mean blood pressure, read-out: Hypotensive effect R max.

Regarding `CCC(=CC(CNC(C)=O)=NO)C(C)[N+](=O)[O-]` (single isomer, unassigned) [Example 5 A, 1-Acetylamino-4-ethyl-2-hydroxyimino-5-nitro-3-hexene], the figures for the IC50 in assay [1] and in assay [4] (Rattus norvegicus) were 5.1 µM and 46.9 µM, respectively. Also, the inhibition in vivo at 0.32 mg/kg in assay [2] (setting [5]) amounted to 49.9%. Besides, the “Hypotensive effect T 1/2” value in assay [2] (0.1 mg/kg) was 7.6 min; in assay [2] (0.32 mg/kg) it was 12.8 min; in assay [3] (3.2 mg/kg) it was 16 min; in assay [3] (10 mg/kg) it was 25 min; in assay [3] (32 mg/kg), 75.6 min. In addition, the results for the “Hypotensive effect Dur.” value in assay [3] (3.2 mg/kg), in assay [3] (10 mg/kg) and in assay [3] (32 mg/kg) were 30.8 min, 83.9 min and 144.2 min, respectively. Moreover, in assay [3] (3.2 mg/kg), the inhibition in vivo at 3.2 mg/kg was 27.2%. Besides, in assay [3] (10 mg/kg), the inhibition in vivo at 10 mg/kg came to 54.4%. In addition, the inhibition in vivo at 32 mg/kg in assay [3] (32 mg/kg) is 60.6%.
On to `CCC(=CC(CNC(=O)c1cccnc1)=NO)C(C)[N+](=O)[O-]` (centres unmarked) [Example 6 A], for which the figures for the IC50 in assay [1] and in assay [4] were 1.8 µM and 25.1 µM, respectively. Moreover, the inhibition in vivo at 0.1 mg/kg in assay [2] (Rattus norvegicus, iv, 0.1 mg/kg, maximal % decrease of mean blood pressure, read-out: Hypotensive effect R max) was determined as 16.9%. For the same compound, the inhibition in vivo at 0.32 mg/kg in assay [2] (setting [5]) came out at 36.3%. In addition, the “Hypotensive effect T 1/2” value came out at 6.8 min in assay [2] (0.1 mg/kg); 11.2 min in assay [2] (0.32 mg/kg); 20 min in assay [3] (3.2 mg/kg); 30 min in assay [3] (10 mg/kg); 117 min in assay [3] (32 mg/kg). Moreover, the “Hypotensive effect Dur.” value in assay [3] (3.2 mg/kg) was 29.3 min; in assay [3] (10 mg/kg) it was 116.0 min; in assay [3] (32 mg/kg), above 300 min. In addition, the inhibition in vivo at 3.2 mg/kg in assay [3] (3.2 mg/kg) came to 22.3%. For the same compound, in assay [3] (10 mg/kg), the inhibition in vivo at 10 mg/kg came to 27.2%. The inhibition in vivo at 32 mg/kg in assay [3] (32 mg/kg) was determined as 29.6%.

Values taken from patent US5691366A, “Nitro compounds, process for preparation thereof and use thereof” (Fujisawa Pharmaceutical Co., Ltd., priority 1991, dated 1997).
